Laboratory results as given in publication PMC6429183, “Identification of Compounds That Inhibit Estrogen-Related Receptor Alpha Signaling Using High-Throughput Screening Assays” (Molecules, 2019).
Several values for one entry are separate records, joined by “and”; a condition that tells them apart may be missing. Equal values may be shown once. Where a name gives a salt, the structure may show the parent alone.

Key:
IDH3α = test: qRT-PCR mRNA expression of ERR downstream gene IDH3α; type: cell-based; conditions: ERR reporter cells, vs GAPDH, DMSO = 0%
Procedure: (§1) Total RNA was isolated from treated ERR reporter cells using an RNeasy Mini Kit (Qiagen, Germantown, MD, USA), homogenized using a QIAshredder (Qiagen), and reverse transcribed with a High-Capacity RNA-to-cDNA™ Kit (ThermoFisher Scientific, Inc.) following the manufacturers’ instructions. Expression of ERRα, COX8α, IDH3α, PPARα, COX4I1, and cytochrome c genes was normalized against GAPDH. All primers were purchased from ThermoFisher Scientific, Inc. Real-time PCR assays were performed in 384-well plates on a QuantStudio 5 (Applied Biosystems, Foster City, CA, USA) with TaqMan™ Gene Expression Master Mix (ThermoFisher Scientific, Inc.). Induction values were calculated using the equation: Fold = 2^ΔΔCt, where ΔCt represents the differences in cycle threshold numbers between each of the target genes and GAPDH, and ΔΔCt represents the relative change in these differences between control and treatment groups. Experimental data are presented as a mean of triplicate determinations ± SD. Statistical comparisons were made by t-test, while the statistical significance was set at p values of <0.05 (light blue), <0.01 (medium blue), and <0.001 (dark blue).

cytochrome c = test: qRT-PCR mRNA expression of ERR downstream gene cytochrome c; type: cell-based; conditions: ERR reporter cells, vs GAPDH, DMSO = 0%
Procedure: as §1

[1] = molecular target: T1, ERRα with PGC-1α (PGC/ERR pathway) (Homo sapiens, UniProt P11474); test: PGC/ERR reporter (luciferase) qHTS assay, PGC/ERR-HEK293; conditions: for PGC/ERR-HEK293 Follow-Up Efficacy / PGC/ERR-HEK293 Primary Efficacy: negative = antagonism, positive = agonism
T1 sequence (P11474 1-423): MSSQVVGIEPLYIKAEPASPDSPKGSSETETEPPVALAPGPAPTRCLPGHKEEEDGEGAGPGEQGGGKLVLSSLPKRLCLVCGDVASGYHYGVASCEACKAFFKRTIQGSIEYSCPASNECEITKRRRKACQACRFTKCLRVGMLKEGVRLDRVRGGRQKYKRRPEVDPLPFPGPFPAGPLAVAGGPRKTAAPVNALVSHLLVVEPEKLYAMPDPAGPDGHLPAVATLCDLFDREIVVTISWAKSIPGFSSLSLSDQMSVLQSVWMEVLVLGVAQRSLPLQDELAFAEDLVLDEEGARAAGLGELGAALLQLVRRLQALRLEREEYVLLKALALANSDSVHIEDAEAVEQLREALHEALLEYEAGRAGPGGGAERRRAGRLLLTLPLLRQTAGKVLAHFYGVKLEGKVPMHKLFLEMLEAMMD

[2] = tested on: PGC/ERR reporter HEK293 cells; test: CellTiter-Fluor cell viability assay multiplexed with PGC/ERR reporter assay; type: cell-based; conditions: for PGC/ERR-HEK293 Follow-Up Viability EC50: follow-up screen; for PGC/ERR-HEK293 Primary Viability EC50: primary qHTS
Procedure: (§2) ERR or PGC/ERR reporter HEK293 cells suspended in culture medium without puromycin were dispensed at 2500 cells/5 μL/well in tissue culture–treated 1536-well white assay plates (Greiner Bio-One North America, Monroe, NC, USA) using a Thermo Scientific Multidrop Combi (ThermoFisher Scientific, Inc.). […] After the cells were incubated at 37 °C with 5% CO2 for 6 h, 23 nL of compounds or control, XTC790, was transferred into the assay plates using a Wako Pintool station (Wako Automation, San Diego, CA, USA). The assay plates were incubated at 37 °C for 18 h, followed by the addition of 5 μL ONE-Glo luciferase reagent (Promega, Madison, WI, USA) using a Flying Reagent Dispenser (Aurora Discovery, Carlsbad, CA, USA). After 30 min of incubation at room temperature, the luminescence intensity of the assay plates was quantified using a ViewLux plate reader (PerkinElmer, Shelton, CT, USA). The assays were performed three times for each compound concentration. These ERR and PGC/ERR reporter assays were multiplexed with the CellTiter-Fluor Cell Viability Assay (Promega), a fluorescence-based cell viability assay, to assess compound cytotoxicity.
The qHTS data were analyzed as described previously. Each titration point was normalized relative to the positive control compound (XCT790 = −100%) and DMSO-only wells (0%) according to the following equation: % Activity = [(Vcompound − VDMSO)/(VDMSO − Vpos)] × 100, where Vcompound denotes the compound well values, Vpos denotes the median value of the positive control wells, and VDMSO denotes the median values of the DMSO-only wells. The DMSO-only compound plates at the beginning and end of the compound plate stack were used to correct the data set by applying an in-house pattern correction algorithm. The half maximum inhibition values (IC50) for each compound and maximum response (efficacy) values were obtained by fitting the concentration-response curves of each compound to a four-parameter Hill equation [91]. Compounds were designated as Class 1–4 according to the type of concentration–response curve observed. For each reading, the activity outcome of a test compound was first categorized by the average curve rank from the triplicate runs and the reproducibility calls. The final activity outcome of each compound was based on the ERR antagonist readout activity and cell viability counter screen.

[3] = tested on: ERR reporter HEK293 cells; test: CellTiter-Fluor cell viability assay multiplexed with ERR reporter assay; type: cell-based; conditions: for ERR-HEK293 Follow-Up Viability EC50: follow-up screen; for ERR-HEK293 Primary Viability EC50: primary qHTS, viability counter screen
Procedure: as §2
The qHTS data were analyzed as described previously. […] The DMSO-only compound plates at the beginning and end of the compound plate stack were used to correct the data set by applying an in-house pattern correction algorithm. The half maximum inhibition values (IC50) for each compound and maximum response (efficacy) values were obtained by fitting the concentration-response curves of each compound to a four-parameter Hill equation [91]. […] For each reading, the activity outcome of a test compound was first categorized by the average curve rank from the triplicate runs and the reproducibility calls. The final activity outcome of each compound was based on the ERR antagonist readout activity and cell viability counter screen.

[4] = molecular target: T2, estrogen-related receptor alpha (ERRα) (Homo sapiens, UniProt P11474); test: ERR reporter (luciferase) antagonist qHTS assay, ERR-HEK293; conditions: for ERR-HEK293 Follow-Up Efficacy: follow-up screen; for ERR-HEK293 Follow-Up Efficacy / ERR-HEK293 Primary Efficacy: relative to XCT790 = −100%; for ERR-HEK293 Primary Efficacy: primary qHTS, DMSO = 0%
T2 sequence (P11474 1-423): T1 sequence (P11474 1-423)

COX8α = test: qRT-PCR mRNA expression of ERR downstream gene COX8α; type: cell-based; conditions: ERR reporter cells, vs GAPDH, DMSO = 0%
Procedure: as §1

[5] = ERR-HEK293 Follow-Up EC50, follow-up (confirmation) screen, mean ± SD, triplicate
[6] = ERR-HEK293 Primary EC50, primary qHTS, 18 h, 15 concentrations, mean ± SD, triplicate
[7] = PGC/ERR-HEK293 Follow-Up EC50, follow-up screen, mean ± SD, triplicate
[8] = PGC/ERR-HEK293 Primary EC50, primary qHTS, 18 h, mean ± SD, triplicate

| SMILES | PGC/ERR-HEK293 Follow-Up Efficacy ([1]; follow-up screen) | PGC/ERR-HEK293 Primary Efficacy ([1]; primary qHTS) | PGC/ERR-HEK293 Follow-Up Viability EC50 [2] | PGC/ERR-HEK293 Primary Viability EC50 [2] | ERR-HEK293 Follow-Up Viability EC50 [3] | ERR-HEK293 Primary Viability EC50 [3] | ERR-HEK293 Follow-Up Efficacy [4] | ERR-HEK293 Primary Efficacy [4] | EC50 [4, 5] | EC50 [4, 6] | further results |
| --- | --- | --- | --- | --- | --- | --- | --- | --- | --- | --- | --- |
| CO/N=C(/C1=NOCCO1)c1ccccc1Oc1ncnc(Oc2ccccc2Cl)c1F [Fluoxastrobin] | – | – | – | – | – | – | – | – | – | – | Percent inhibition of mRNA gene expression, IDH3α (IDH3α; 7 µM): 13.3 ± 2.44%; Percent inhibition of mRNA gene expression, Cytochrome C (cytochrome c; 7 µM): 25.5 ± 7.81% |
| CC[C@@]1(O)C(=O)OCc2c1cc1n(c2=O)Cc2c-1nc1ccccc1c2/C=N/OC(C)(C)C [Gimatecan] | −130 ± 20.6% | −115 ± 2.20% | Inactive | Inactive | Inactive | Inactive | −145 ± 16.0% | −117 ± 14.5% | – | – | EC50 ([1]; PGC/ERR-HEK293 Follow-Up EC50): 3340 nM; EC50 ([1]; PGC/ERR-HEK293 Primary EC50): 2530 nM; EC50 ([4]; ERR-HEK293 Follow-Up EC50): 44.2 nM; EC50 ([4]; ERR-HEK293 Primary EC50): 49.7 nM |
| O=c1[nH]c(=O)n([C@H]2C[C@H](O)[C@@H](CO)O2)cc1C(F)(F)F [Trifluridine] | – | – | Inactive Inactive | Inactive Inactive | Inactive | Inactive | −67.7 ± 6.20% | −51.8 ± 5.77% | 1750 ± 314 nM | 875 ± 59.3 nM | PGC/ERR-HEK293 Follow-Up EC50 ([1]; follow-up screen, mean ± SD, triplicate): Inactive Inactive; PGC/ERR-HEK293 Primary EC50 ([1]; primary qHTS, 18 h, mean ± SD, triplicate): Inactive Inactive; Percent inhibition of mRNA gene expression, COX8α (COX8α; 1 µM): 43.2 ± 21.8% |
| Nc1ncn([C@H]2C[C@H](O)[C@@H](CO)O2)c(=O)n1 [Decitabine] | – | – | – | – | – | – | – | – | – | – | Percent inhibition of mRNA gene expression, IDH3α (IDH3α; 2 µM): 5.79 ± 45.6% |
| Nc1ccc2cc3ccc(N)cc3nc2c1 [Proflavin hemisulfate] | – | – | – | – | – | – | – | – | – | – | Percent inhibition of mRNA gene expression, IDH3α (IDH3α; 3 µM): 24.9 ± 20.6%; Percent inhibition of mRNA gene expression, COX8α (COX8α; 3 µM): 34.8 ± 26.7%; Percent inhibition of mRNA gene expression, Cytochrome C (cytochrome c; 3 µM): 20.6 ± 8.69% |
| CC[C@@]1(O)C(=O)OCc2c1cc1n(c2=O)Cc2cc3c(CN(C)C)c(O)ccc3nc2-1 [Topotecan hydrochloride] | −78.8 ± 7.20% | −69.1 ± 5.82% | Inactive | Inactive | Inactive | Inactive | −140 ± 24.4% | −127 ± 11.8% | 722 ± 285 nM | 1240 ± 83.7 nM | EC50 [1, 7]: 5260 nM; EC50 [1, 8]: 14100 ± 1150 nM; ERR-HEK293 Primary Efficacy ([4]; listed as topotecan): −127% |
| CON=C(C(=O)OC)c1ccccc1CON=C(C)c1cccc(C(F)(F)F)c1 [Trifloxystrobin] | – | – | – | – | – | – | – | – | – | – | Percent inhibition of mRNA gene expression, IDH3α (IDH3α; 0.5 µM): 10.4 ± 0.21%; Percent inhibition of mRNA gene expression, COX8α (COX8α; 0.5 µM): 38.4 ± 17.2% |
| Cc1nn(C)c(Oc2ccccc2)c1C=NOCc1ccc(C(=O)OC(C)(C)C)cc1 [Fenpyroximate] | −56.2 ± 10.5% | −36.8% and −36.8 ± 2.17% | – | – | – | – | −89.6 ± 6.08% | −67.1 ± 9.31% | 6.99 ± 3.28 nM | 4.52 ± 0.577 nM | EC50 [1, 7]: 18.6 ± 21 nM; EC50 [1, 8]: 8.75 ± 0.572 nM; EC50 ([1]; potency, ERR/PGC antagonist assay, primary screen): 8.8 nM; Percent inhibition of mRNA gene expression, Cytochrome C (cytochrome c; 7.5 nM): 5.28 ± 4.56%; EC50 ([4]; potency, ERR antagonist assay, primary screen): 4.5 nM |
